Data: PMC8689225, “Cardiac ryanodine receptor N-terminal region biosensors identify novel inhibitors via FRET-based high-throughput screening” (The Journal of Biological Chemistry, 2021)

Columns and labels:
[1] = system: rat skeletal muscle fibers; assay: Electrically evoked Ca2+ transients in skinned skeletal muscle fibers; assay type: cell-based; details: 10 μM FA or 1 mM tetracaine, 1 Hz
Text: Mechanically skinned fibers were isolated, mounted in a custom chamber, and bathed in a resting physiological solution containing rhod-2, as previously described ([21]). The Ca^2+-sensitive dye rhod-2 was used to track cytosolic Ca^2+ transients when exposed to electrical stimulation. Field pulses at 1 Hz frequency and 4 ms in duration were applied across platinum electrodes parallel to the long axis of the fiber. Imaging for electrical stimulation experiments was in xt mode, at a rate of 2 ms.line^−1. DMSO vehicle (0.01%), FA (10 μM), and tetracaine were added to the physiological solution. Each treatment was applied precisely at the seventh successive Ca^2+ transient.

RyR1 [2] = target: T1, RyR1 (Rattus norvegicus, UniProt F1LMY4); assay: t-tubule Ca2+ measurement of RyR1 leak in skinned skeletal muscle fibers; assay type: cell-based; details: 10 μM FA or 1 mM tetracaine, [Ca2+]cyto 200 nM
T1 construct: from tissue; host or cells: Wistar rat extensor digitorum longus (EDL), mechanically skinned single fibres
Method: All experimental methods using rodents were approved by the Animal Ethics Committees at The University of Queensland and were performed in accordance with the relevant guidelines and regulations. Five-month-old Wistar rats (UQ Biological Resources) were euthanized by asphyxiation via CO2 exposure, and the extensor digitorum longus (EDL) was rapidly excised. Once dissected, muscles were pinned to Sylgard set in a Petri dish containing paraffin oil.
Bundles of fibers were isolated and exposed to an internal solution containing rhod-5N, as described previously ([47]). After 15 min incubation, single skeletal muscle fibers were mechanically skinned and mounted in a custom-made chamber. […] For tracking Ca^2+ movements across the t-system membrane, images were continuously recorded in xyt mode with an aspect ratio of 256 × 512, with the long aspect of the image parallel with that of the preparation. Temporal resolution of imaging in this mode where the fluorescence signal was within the borders of the fiber was 0.8 s.
T-system rhod-5N fluorescence was converted to [Ca^2+]t-sys as previously described ([47]). To determine the effect of RyR modulators on the RyR Ca^2+ leak, isolated mechanically skinned fibers were continuously imaged as described above, to obtain a record of t-system rhod-5N fluorescence changes over time as the cytoplasmic solution bathing the fiber was changed. […]

α2-adrenergic receptors = system: α2-adrenergic receptors; set-up: method as in PMID 7969082; details: cited from earlier work
mouse RyR2 NTR = target: T2, mouse RyR2 NTR (Mus musculus, UniProt E9Q401, K30C/K441C, form not given); assay: FLT-FRET dose-response with AC-NTR biosensor; assay type: binding
T2 sequence (E9Q401 1-547 K30C/K441C): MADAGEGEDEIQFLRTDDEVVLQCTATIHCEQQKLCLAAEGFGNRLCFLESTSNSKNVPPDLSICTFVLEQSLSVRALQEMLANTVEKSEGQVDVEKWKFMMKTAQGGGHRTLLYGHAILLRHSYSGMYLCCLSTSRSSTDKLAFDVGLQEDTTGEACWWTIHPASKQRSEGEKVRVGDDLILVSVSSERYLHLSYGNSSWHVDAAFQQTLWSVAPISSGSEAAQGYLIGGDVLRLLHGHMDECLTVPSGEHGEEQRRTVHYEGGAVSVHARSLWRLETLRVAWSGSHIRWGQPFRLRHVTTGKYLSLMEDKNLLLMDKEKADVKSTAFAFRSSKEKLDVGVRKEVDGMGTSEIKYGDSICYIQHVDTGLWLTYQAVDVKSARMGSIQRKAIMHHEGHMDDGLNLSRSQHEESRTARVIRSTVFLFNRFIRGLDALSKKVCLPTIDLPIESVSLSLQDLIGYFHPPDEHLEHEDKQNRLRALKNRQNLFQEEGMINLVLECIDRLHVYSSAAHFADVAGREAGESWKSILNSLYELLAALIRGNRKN
Text: The NTR of mouse RyR2 (residues 1–547) was cloned and expressed as previously described ([27]). The DNA construct contains a 6×His tag, a maltose-binding protein (MBP) tag, and a tobacco etch virus (TEV) protease cleavage site. The seven native solvent-exposed cysteine residues were substituted with alanine residues, and two constructs were engineered with Cys substitutions at surface residues R383 and K441 (in the B and C domains, respectively; termed BC) and at K30 and K441 (in the A and C domains, respectively; termed AC) for labeling with spectroscopic probes such as appropriate donor–acceptor fluorophores for FRET (for the purpose of this report, these are considered the WT forms of AC and BC). A variant of the BC construct corresponding to the disease-associated mutant (R420Q) was also prepared. For this site-directed mutagenesis work, we used the QuikChange (Stratagene) and Phusion High-Fidelity PCR (Thermo Fisher Scientific) kits. The WT-NTR, R420Q-NTR, AC- and BC-NTR, AC- and BC-R420Q-NTR protein constructs were expressed in Escherichia coli Rosetta (DE3) pLacI cells at 18 °C and purified with a protocol adapted from previously published work ([26]). An amylose column was first applied after the cells were lysed by ultrasonication. The protein in the elution was then cleaved using TEV protease. The cleaved crude protein went through the second amylose column to separate from the MBP and then followed by a Superdex S-200 size exclusion column in a buffer consisting of 250 mM KCl, 10 mM HEPES, and 14 mM β-mercaptoethanol (pH 7.4). The NTR protein (3 μM) was then incubated in 10 mM HEPES, 250 mM KCl (pH 7.4, 2 h, 21 °C) with the fluorescent probes Alexa Fluor 488 maleimide (AF488, donor; 40 μM) and Alexa Fluor 568 maleimide (AF568, acceptor; 60 μM). The maleimide of the dye reacts with the thiols the Cys residues engineered into NTR, forming a covalently labeled protein. The Alexa dyes were added last to the reaction mixture, from 10 mM DMSO stock solutions. This reaction is not selective to one site (K30C or K441C), and we anticipate that there is a mixed population with K30C or K441C labeled with either AF488 (donor) or AF568 (acceptor). We focused on maximizing the fraction containing donor–acceptor pairs, thus maximizing FRET efficiency and the precision for detecting a change in structure as an indication that a compound interacts with the NTR biosensor. The labeling efficiency was determined by comparing the molar concentration of the bound dye, determined from UV-Vis absorbance, to the protein concentration, determined from gel densitometry. Essentially complete labeling was confirmed from electrospray ionization mass spectrometry. CD spectra of the WT-NTR and mutant R420Q-NTR constructs before and after labeling were recorded using a JASCO J-815 CD spectrometer (JASCO), confirming similar folding (Fig. S1).
The 1536-well assay plates were prepared as described in our previous reports ([21]). The LOPAC (Sigma-Aldrich) collection received in 96-well plates was reformatted into 384-well polypropylene intermediate plates (Greiner Bio-One) using a multichannel liquid handler, BioMek FX (Beckman Coulter), then transferred to 384-well Echo Qualified source plates (Labcyte Inc). Assay plates were prepared as previously described ([20]). On screening days, these plates were thawed out and were loaded with labeled NTR (5 μl, 20 nM final concentration) using a Multidrop Combi automated sample dispenser.
HTS measurements were conducted in a prototype top-read FLT plate reader (FLT-PR, Fluorescence Innovations, Inc), which reads each 1536-well plate in ∼3 min ([63], [64]). AF488 donor fluorescence was excited with a 473 nm microchip laser from Concepts Research Corporation, and the emission signal was split into two channels by a dichroic mirror and acquired with 517 ± 10 nm (channel 1) and 535 ± 7 nm band-pass filters (channel 2) (Semrock). […]

RyR2 = target: T3, RyR2 (Sus scrofa, UniProt A0A5G2R1W3); assay: [3H]ryanodine binding to cardiac SR (CSR) vesicles; assay type: biochemical, pig
T3 construct: from tissue; host or cells: porcine cardiac left ventricle, crude SR vesicles
Method: (§1) Crude sarcoplasmic reticulum membrane vesicles were isolated from porcine longissimus dorsi muscle and porcine cardiac left ventricle tissue by differential centrifugation of homogenized tissue, as established previously ([65]). Skeletal heavy SR (HSR) vesicles, which are enriched with RyR1, were isolated by fractionation of crude skeletal SR vesicles using a discontinuous sucrose gradient, in accordance with our published work ([65]). All vesicles were flash-frozen and stored at −80 °C.
(§2) In 96-well plates, skeletal SR membranes (HSR, 1 mg/ml) and cardiac SR membranes (CSR, 3 mg/ml) were preincubated with 1% DMSO or hit compound for 30 min at 22 °C in a solution containing 150 mM KCl, 5 mM GSH, 1 μg/ml Aprotinin/Leupeptin, 1 mM EGTA, and 65 μM or 1.02 mM CaCl2 (as determined by MaxChelator to yield 30 nM or 30 μM of free Ca^2+, respectively), 0.1 mg/ml of BSA, and 20 mM K-PIPES (pH 7.0). Nonspecific [^3H]ryanodine binding to SR was assessed by addition of 40 μM nonradioactively labeled ryanodine. Maximal [^3H]ryanodine binding was assessed by addition of 5 mM adenylyl-imidodiphosphate (AMP-PNP), and in the case of CSR, 20 mM caffeine was added. These control samples were each loaded over four wells per plate. Binding of [^3H]ryanodine (7.5 and 10 nM for CSR and HSR, respectively) was determined following a 3 h incubation at 37 °C and filtration through grade GF/B glass microfiber filters (Brandel Inc) using a Brandel Harvester. In 4 ml of Ecolite scintillation cocktail (MP biomedicals), [^3H]ryanodine retained on the filter was counted using a Beckman LS6000 scintillation counter.

RyR1 [3] = target: T4, RyR1 (Sus scrofa, UniProt P16960); assay: [3H]ryanodine binding to skeletal SR (HSR) vesicles; assay type: biochemical, pig; details: for EC50: EC50, [3H]ryanodine binding, skeletal HSR, Table S4
T4 construct: from tissue; host or cells: porcine longissimus dorsi muscle, heavy SR vesicles
Method: as §1, §2

T4 sequence (P16960 whole entry): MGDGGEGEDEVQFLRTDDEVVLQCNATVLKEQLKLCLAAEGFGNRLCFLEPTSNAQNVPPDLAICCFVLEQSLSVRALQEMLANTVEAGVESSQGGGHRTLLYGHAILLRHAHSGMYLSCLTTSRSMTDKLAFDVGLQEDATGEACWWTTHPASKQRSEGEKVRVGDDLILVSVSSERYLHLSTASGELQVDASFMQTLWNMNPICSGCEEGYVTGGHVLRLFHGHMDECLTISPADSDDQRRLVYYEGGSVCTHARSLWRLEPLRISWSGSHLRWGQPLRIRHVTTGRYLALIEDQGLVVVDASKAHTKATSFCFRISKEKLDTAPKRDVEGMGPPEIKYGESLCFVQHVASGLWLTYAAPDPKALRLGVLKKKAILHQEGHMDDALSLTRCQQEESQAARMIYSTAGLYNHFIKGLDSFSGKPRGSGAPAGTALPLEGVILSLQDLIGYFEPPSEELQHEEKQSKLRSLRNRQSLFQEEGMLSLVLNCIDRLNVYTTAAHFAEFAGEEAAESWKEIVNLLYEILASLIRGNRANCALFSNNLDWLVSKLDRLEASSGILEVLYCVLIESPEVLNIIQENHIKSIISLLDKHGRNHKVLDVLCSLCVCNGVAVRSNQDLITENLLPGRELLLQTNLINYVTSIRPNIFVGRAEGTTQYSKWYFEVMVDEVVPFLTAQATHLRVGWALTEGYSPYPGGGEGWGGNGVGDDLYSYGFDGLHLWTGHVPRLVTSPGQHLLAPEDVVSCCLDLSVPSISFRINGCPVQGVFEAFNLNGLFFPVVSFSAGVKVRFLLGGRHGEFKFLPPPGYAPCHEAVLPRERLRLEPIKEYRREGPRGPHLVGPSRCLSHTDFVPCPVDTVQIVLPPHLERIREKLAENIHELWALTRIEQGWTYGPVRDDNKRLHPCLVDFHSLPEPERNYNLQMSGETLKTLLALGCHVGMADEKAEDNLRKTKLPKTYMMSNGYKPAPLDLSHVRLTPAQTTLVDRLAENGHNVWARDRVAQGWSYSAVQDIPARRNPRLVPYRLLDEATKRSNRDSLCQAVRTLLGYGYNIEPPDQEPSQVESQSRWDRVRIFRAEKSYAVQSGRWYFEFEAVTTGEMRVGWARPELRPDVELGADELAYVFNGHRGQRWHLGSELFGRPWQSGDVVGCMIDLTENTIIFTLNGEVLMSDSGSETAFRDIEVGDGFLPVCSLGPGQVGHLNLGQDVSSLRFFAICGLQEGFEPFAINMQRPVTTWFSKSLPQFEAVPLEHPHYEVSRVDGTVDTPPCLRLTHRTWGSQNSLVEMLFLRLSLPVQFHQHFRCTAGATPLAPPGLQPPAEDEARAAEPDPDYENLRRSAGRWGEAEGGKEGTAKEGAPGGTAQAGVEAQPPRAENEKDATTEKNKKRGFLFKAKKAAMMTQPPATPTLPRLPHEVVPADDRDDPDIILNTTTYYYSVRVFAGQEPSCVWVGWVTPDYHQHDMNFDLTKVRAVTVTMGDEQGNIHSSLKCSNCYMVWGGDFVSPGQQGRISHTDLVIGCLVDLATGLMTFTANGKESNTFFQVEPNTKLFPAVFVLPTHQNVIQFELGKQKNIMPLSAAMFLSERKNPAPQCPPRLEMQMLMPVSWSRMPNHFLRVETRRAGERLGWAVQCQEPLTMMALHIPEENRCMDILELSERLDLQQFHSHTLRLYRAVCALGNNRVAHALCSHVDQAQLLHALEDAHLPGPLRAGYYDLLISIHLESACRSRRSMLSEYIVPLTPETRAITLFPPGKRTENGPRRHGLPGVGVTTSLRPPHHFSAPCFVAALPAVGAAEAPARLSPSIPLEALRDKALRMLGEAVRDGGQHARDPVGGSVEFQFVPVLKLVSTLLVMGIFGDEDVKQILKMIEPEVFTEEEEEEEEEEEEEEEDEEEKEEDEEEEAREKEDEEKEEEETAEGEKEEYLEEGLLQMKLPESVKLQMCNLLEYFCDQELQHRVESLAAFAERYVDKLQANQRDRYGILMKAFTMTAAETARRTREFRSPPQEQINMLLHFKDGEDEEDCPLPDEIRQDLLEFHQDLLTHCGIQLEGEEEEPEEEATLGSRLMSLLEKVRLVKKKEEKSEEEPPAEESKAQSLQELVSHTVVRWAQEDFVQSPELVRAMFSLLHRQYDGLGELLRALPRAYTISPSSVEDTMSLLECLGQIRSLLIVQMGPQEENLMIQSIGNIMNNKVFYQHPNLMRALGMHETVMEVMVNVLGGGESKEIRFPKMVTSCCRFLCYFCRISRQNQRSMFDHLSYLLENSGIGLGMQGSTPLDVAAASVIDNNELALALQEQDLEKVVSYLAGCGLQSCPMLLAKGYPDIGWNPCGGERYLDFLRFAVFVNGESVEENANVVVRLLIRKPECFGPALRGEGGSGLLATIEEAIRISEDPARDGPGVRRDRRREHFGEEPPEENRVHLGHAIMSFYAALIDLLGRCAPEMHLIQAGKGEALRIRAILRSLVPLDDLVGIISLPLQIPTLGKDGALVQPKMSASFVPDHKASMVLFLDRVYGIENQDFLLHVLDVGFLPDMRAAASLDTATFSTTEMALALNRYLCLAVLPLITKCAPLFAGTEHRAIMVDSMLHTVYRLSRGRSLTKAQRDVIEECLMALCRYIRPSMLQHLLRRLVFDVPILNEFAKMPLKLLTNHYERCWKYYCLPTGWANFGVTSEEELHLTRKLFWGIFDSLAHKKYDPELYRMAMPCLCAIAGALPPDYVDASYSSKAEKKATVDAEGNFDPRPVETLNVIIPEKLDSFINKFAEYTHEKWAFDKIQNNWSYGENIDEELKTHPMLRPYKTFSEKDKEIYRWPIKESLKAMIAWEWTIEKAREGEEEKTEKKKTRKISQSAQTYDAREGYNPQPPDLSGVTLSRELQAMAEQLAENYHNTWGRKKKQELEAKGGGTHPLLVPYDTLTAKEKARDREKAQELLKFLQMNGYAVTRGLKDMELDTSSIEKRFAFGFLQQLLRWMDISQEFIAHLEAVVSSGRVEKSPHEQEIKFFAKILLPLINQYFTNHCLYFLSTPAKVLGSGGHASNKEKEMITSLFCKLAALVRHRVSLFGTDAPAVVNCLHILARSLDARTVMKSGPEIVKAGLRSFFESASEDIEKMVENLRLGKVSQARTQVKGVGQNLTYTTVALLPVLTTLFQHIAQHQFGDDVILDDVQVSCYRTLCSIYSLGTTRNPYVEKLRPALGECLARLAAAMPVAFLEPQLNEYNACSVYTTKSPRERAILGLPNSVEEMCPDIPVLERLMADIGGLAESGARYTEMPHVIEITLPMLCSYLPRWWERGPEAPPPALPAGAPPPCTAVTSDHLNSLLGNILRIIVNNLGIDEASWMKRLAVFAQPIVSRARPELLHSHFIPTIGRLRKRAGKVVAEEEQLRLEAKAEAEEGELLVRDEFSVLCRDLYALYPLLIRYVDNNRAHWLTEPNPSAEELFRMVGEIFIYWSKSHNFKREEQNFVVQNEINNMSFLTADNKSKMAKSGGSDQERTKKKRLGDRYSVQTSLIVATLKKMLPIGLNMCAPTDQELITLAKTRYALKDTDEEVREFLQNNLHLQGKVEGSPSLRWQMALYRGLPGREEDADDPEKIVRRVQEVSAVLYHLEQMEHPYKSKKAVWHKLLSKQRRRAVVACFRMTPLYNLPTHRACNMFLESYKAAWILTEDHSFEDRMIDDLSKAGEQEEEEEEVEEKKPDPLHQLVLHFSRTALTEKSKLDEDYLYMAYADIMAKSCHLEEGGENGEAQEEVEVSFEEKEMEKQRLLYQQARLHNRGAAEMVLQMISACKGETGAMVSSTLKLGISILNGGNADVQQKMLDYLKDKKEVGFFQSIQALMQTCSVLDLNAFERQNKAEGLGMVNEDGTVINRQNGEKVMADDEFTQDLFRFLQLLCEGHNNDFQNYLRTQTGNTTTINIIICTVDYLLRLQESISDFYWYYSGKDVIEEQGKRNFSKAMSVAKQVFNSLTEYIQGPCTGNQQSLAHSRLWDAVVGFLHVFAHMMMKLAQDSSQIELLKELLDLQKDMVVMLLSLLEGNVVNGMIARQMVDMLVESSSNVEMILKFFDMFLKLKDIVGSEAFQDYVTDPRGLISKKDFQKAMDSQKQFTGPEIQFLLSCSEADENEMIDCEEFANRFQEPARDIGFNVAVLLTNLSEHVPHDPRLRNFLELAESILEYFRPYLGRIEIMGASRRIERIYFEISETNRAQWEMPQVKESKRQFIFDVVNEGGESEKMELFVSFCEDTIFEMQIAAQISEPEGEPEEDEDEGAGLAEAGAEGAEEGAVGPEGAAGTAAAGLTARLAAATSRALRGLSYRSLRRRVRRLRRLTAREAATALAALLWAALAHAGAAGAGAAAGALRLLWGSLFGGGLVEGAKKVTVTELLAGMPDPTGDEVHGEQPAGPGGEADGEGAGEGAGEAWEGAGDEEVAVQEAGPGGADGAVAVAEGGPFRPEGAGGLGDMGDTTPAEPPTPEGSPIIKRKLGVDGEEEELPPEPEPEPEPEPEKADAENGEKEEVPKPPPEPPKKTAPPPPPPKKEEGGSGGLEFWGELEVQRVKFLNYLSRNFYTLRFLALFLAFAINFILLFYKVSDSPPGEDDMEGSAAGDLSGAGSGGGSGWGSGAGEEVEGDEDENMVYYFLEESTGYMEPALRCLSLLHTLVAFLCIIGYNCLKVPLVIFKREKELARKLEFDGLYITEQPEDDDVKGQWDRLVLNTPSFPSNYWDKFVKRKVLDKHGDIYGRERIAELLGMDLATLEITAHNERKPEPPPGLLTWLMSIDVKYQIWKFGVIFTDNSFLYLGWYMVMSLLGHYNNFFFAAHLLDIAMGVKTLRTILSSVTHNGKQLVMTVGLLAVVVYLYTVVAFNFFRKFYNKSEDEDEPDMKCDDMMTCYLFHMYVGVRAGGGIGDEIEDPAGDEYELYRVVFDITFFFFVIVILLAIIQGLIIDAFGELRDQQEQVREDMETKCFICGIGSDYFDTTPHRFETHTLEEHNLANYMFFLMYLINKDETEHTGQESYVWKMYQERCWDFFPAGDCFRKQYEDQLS

SMILES | electrically induced Ca2+ transient amplitude [1] | steady-state [Ca2+]t-sys (RyR1 leak) (RyR1 [2]) | binding affinity for α2-adrenergic receptors (α2-adrenergic receptors) | ΔFLT (mouse RyR2 NTR; AC-NTR biosensor, 0 to 100 μM, CPNQ/corbadrine decrease FLT, FA/tacrolimus increase FLT) | EC50 relative to CPNQ (fold higher) (mouse RyR2 NTR; FRET dose-response) [fold] | EC50 (mouse RyR2 NTR; read-out: EC50, FRET dose-response, AC-NTR biosensor, Hill fit, Table S4) [µM] | EC50 (RyR2) [µM] | effect on [3H]ryanodine binding to RyR2 (RyR2; cardiac SR, 30 μM Ca2+) | EC50 (RyR1 [3]; [Ca2+] 30 nM) [µM] | EC50 (RyR1 [3]; [Ca2+], 30 µM) [µM] | maximum inhibitory effect on [3H]ryanodine binding (RyR1 [3]; skeletal SR, 30 nM Ca2+) [%] | effect on [3H]ryanodine binding to RyR1 (RyR1 [3]; skeletal SR, 30 μM Ca2+)
CCCCNc1ccc(C(=O)OCCN(C)C)cc1 [tetracaine] | significantly decreased | full RyR inhibition | – | – | – | – | – | – | – | – | – | –
C[C@H](N)[C@H](O)c1ccc(O)c(O)c1 [corbadrine, 4-[(1R,2S)-2-amino-1-hydroxypropyl]benzene-1,2-diol] | – | – | very high binding affinity | ≈ 0.35 ns | ~3 | 3.6 | 0.01 | slight activation at high concentrations | 0.02 | 15.3 | ~70 | strongly increased
